Experimental data taken from the NIST ThermoML archive (doi:10.1021/je3002255).
Numbers after ± are expanded uncertainties.

Details: Liquid, Ebulliometric method (Recirculating still)

## CCCOCCO [2-propoxyethanol]
406.13 K
  vapor or sublimation pressure: 60 ± 1.4 kPa
406.15 K
  vapor or sublimation pressure: 60 ± 1.4 kPa
415.28 K
  vapor or sublimation pressure: 80 ± 2 kPa
415.3 K
  vapor or sublimation pressure: 80 ± 2 kPa
422.73 K
  vapor or sublimation pressure: 100 ± 2.5 kPa
422.75 K
  vapor or sublimation pressure: 100 ± 2.5 kPa

## CC(C)O [propan-2-ol]
342.87 K
  vapor or sublimation pressure: 60 ± 1.4 kPa
349.6 K
  vapor or sublimation pressure: 80 ± 1.8 kPa
355.06 K
  vapor or sublimation pressure: 100 ± 2.4 kPa

## CCC(C)O (configuration not stated) [butan-2-ol]
359.26 K
  vapor or sublimation pressure: 60 ± 1.4 kPa
366.45 K
  vapor or sublimation pressure: 80 ± 1.8 kPa
372.21 K
  vapor or sublimation pressure: 100 ± 2.4 kPa
